Results reported in PubChem BioAssay AID328 (DTP/NCI, 2004).
“And” between values parts separate entries of the source, which are not always exact repeats. Equal entries are not always repeated. Toxic doses and inconclusive results are not listed.

Test system: BDF1 mice, P388 leukemia ip, median survival T/C
Test: NCI In Vivo Anticancer Drug Screen. Data for tumor model P388 Leukemia (intraperitoneal) in B6D2F1 (BDF1) mice
Details: endpoint: median survival time, higher = longer survival
Method in brief: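 Vehicle-dosed animals serve as the reference; survival of compound-dosed, tumour-implanted mice is divided by it.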

[1] = dose: 50.0 mg/kg/injection, schedule: Q04DX003 (ip), vehicle: Klucel (hydroxypropylcellulose) (HPC)
[2] = dose: 100.0 mg/kg/injection, schedule: Q01DX009 (ip), vehicle: Klucel (hydroxypropylcellulose) (HPC)
[3] = dose: 100.0 mg/kg/injection, schedule: Q04DX003 (ip), vehicle: Klucel (hydroxypropylcellulose) (HPC)
[4] = dose: 50.0 mg/kg/injection, schedule: Q01DX009 (ip), vehicle: saline with Tween-80
[5] = dose: 100.0 mg/kg/injection, schedule: Q01DX009 (ip), vehicle: saline with Tween-80
[6] = dose: 200.0 mg/kg/injection, schedule: Q01DX009 (ip), vehicle: saline with Tween-80
[7] = dose: 200.0 mg/kg/injection, schedule: Q04DX003 (ip), vehicle: Klucel (hydroxypropylcellulose) (HPC)
[8] = dose: 400.0 mg/kg/injection, schedule: Q04DX003 (ip), vehicle: Klucel (hydroxypropylcellulose) (HPC)
[9] = dose: 100.0 mg/kg/injection, schedule: Q04DX003 (ip), vehicle: saline with Tween-80
[10] = dose: 200.0 mg/kg/injection, schedule: Q04DX003 (ip), vehicle: saline with Tween-80
[11] = dose: 75.0 mg/kg/injection, schedule: Q01DX009 (ip), vehicle: saline with Tween-80
[12] = dose: 150.0 mg/kg/injection, schedule: Q01DX009 (ip), vehicle: saline with Tween-80

Structure (SMILES): CC1(C)N=C(N)N=C(N)N1c1ccc(OCc2ccc(C(=O)Nc3cccc(S(=O)(=O)F)c3)cc2)c(Cl)c1
- T/C (dose: 6.25 mg/kg/injection, schedule: Q01DX009 (ip), vehicle: Klucel (hydroxypropylcellulose) (HPC)): 206 % of control
- T/C (dose: 6.25 mg/kg/injection, schedule: Q04DX003 (ip), vehicle: Klucel (hydroxypropylcellulose) (HPC)): 163 % of control
- T/C (dose: 12.5 mg/kg/injection, schedule: Q01DX009 (ip), vehicle: Klucel (hydroxypropylcellulose) (HPC)): 247 % of control
- T/C (dose: 12.5 mg/kg/injection, schedule: Q04DX003 (ip), vehicle: Klucel (hydroxypropylcellulose) (HPC)): 162 % of control and 184 % of control
- T/C (dose: 25.0 mg/kg/injection, schedule: Q01DX009 (ip), vehicle: Klucel (hydroxypropylcellulose) (HPC)): 308 % of control
- T/C (dose: 25.0 mg/kg/injection, schedule: Q04DX003 (ip), vehicle: Klucel (hydroxypropylcellulose) (HPC)): 186 % of control and 223 % of control
- T/C (dose: 50.0 mg/kg/injection, schedule: Q01DX009 (ip), vehicle: Klucel (hydroxypropylcellulose) (HPC)): 110 % of control
- T/C [1]: 263 % of control and 189 % of control
- T/C [2]: 95 % of control
- T/C [3]: 95 % of control and 119 % of control

Structure (SMILES): [Br][Co][Br].[NH-]CC[NH-].[NH-]CC[NH-]
- T/C (dose: 200.0 mg/kg/injection, schedule: Q04DX003 (ip), vehicle: saline): 109 % of control

Structure (SMILES): Cc1cc2nccc(/C=C/c3ccc(N(C)C)cc3)c2cc1C
- T/C [4]: 112 % of control
- T/C [5]: 120 % of control
- T/C [6]: 98 % of control

Structure (SMILES): CSC1(CC(=O)N2CCCCC2)C(=O)Nc2ccccc21 (centres undefined)
- T/C (dose: 50.0 mg/kg/injection, schedule: Q04DX002 (ip), vehicle: saline with Tween-80): 95 % of control
- T/C (dose: 100.0 mg/kg/injection, schedule: Q04DX002 (ip), vehicle: saline with Tween-80): 101 % of control
- T/C (dose: 200.0 mg/kg/injection, schedule: Q04DX002 (ip), vehicle: saline with Tween-80): 95 % of control

Structure (SMILES): O=C(NCCc1c[nH]c2ccccc12)c1cccnc1
- T/C (dose: 100.0 mg/kg/injection, schedule: Q01DX001 (ip), vehicle: saline): 104 % of control
- T/C (dose: 200.0 mg/kg/injection, schedule: Q01DX001 (ip), vehicle: saline): 100 % of control
- T/C (dose: 400.0 mg/kg/injection, schedule: Q01DX001 (ip), vehicle: saline): 95 % of control

Structure (SMILES): O=C(c1ccccc1)c1c2ccccc2c(C(=O)c2ccccc2)c2ccccc12
- T/C [2]: 105 % of control
- T/C [3]: 91 % of control
- T/C (dose: 200.0 mg/kg/injection, schedule: Q01DX009 (ip), vehicle: Klucel (hydroxypropylcellulose) (HPC)): 100 % of control
- T/C [7]: 100 % of control
- T/C [8]: 95 % of control

Structure (SMILES): CCN1c2ccccc2CC(CCCN(C)C)(C(N)=O)c2ccccc21 (centres undefined)
- T/C (dose: 100.0 mg/kg/injection, schedule: Q01DX009 (ip), vehicle: saline): 97 % of control
- T/C (dose: 200.0 mg/kg/injection, schedule: Q01DX009 (ip), vehicle: saline): 98 % of control

Structure (SMILES): Cc1nc2c(N)nn(C)c2nc1C
- T/C [9]: 100 % of control
- T/C [10]: 100 % of control

Structure (SMILES): NNC(=O)C1CCC(=O)O1 (centres undefined)
- T/C [11]: 98 % of control
- T/C [12]: 91 % of control
- T/C (dose: 300.0 mg/kg/injection, schedule: Q01DX009 (ip), vehicle: saline with Tween-80): 100 % of control

Structure (SMILES): Cc1cc(C)c(CCc2cc(C)c(C)cc2C)cc1C
- T/C [1]: 95 % of control
- T/C [3]: 91 % of control
- T/C [7]: 87 % of control and 108 % of control

Structure (SMILES): CC(C)(C)COC(=O)CCN1CC1
- T/C (dose: 2.5 mg/kg/injection, schedule: Q01DX009 (ip), vehicle: Klucel (hydroxypropylcellulose) (HPC)): 116 % of control
- T/C (dose: 5.0 mg/kg/injection, schedule: Q01DX009 (ip), vehicle: Klucel (hydroxypropylcellulose) (HPC)): 111 % of control
- T/C (dose: 10.0 mg/kg/injection, schedule: Q01DX009 (ip), vehicle: Klucel (hydroxypropylcellulose) (HPC)): 122 % of control
- T/C (dose: 20.0 mg/kg/injection, schedule: Q01DX009 (ip), vehicle: Klucel (hydroxypropylcellulose) (HPC)): 100 % of control
- T/C (dose: 20.0 mg/kg/injection, schedule: Q04DX003 (ip), vehicle: Klucel (hydroxypropylcellulose) (HPC)): 95 % of control
- T/C (dose: 40.0 mg/kg/injection, schedule: Q04DX003 (ip), vehicle: Klucel (hydroxypropylcellulose) (HPC)): 100 % of control
- T/C (dose: 80.0 mg/kg/injection, schedule: Q04DX003 (ip), vehicle: Klucel (hydroxypropylcellulose) (HPC)): 109 % of control

Structure (SMILES): [Cl][Co][Cl].[NH-]CC[NH-].[NH-]CC[NH-]
- T/C (dose: 25.0 mg/kg/injection, schedule: Q04DX002 (ip), vehicle: saline): 100 % of control
- T/C (dose: 50.0 mg/kg/injection, schedule: Q04DX002 (ip), vehicle: saline): 109 % of control
- T/C (dose: 100.0 mg/kg/injection, schedule: Q04DX002 (ip), vehicle: saline): 104 % of control and 111 % of control

Structure (SMILES): CCCCCCCCCCC[N+](C)(C)CC[N+](C)(C)CCCCCCCCCCC
- T/C (dose: 3.13 mg/kg/injection, schedule: Q01DX009 (ip), vehicle: saline): 107 % of control
- T/C (dose: 6.25 mg/kg/injection, schedule: Q01DX009 (ip), vehicle: saline): 110 % of control
- T/C (dose: 12.5 mg/kg/injection, schedule: Q01DX009 (ip), vehicle: saline): 111 % of control

Structure (SMILES): O=C(/C=N/O)Nc1cc(Cl)c(Cl)cc1Cl
- T/C [4]: 109 % of control
- T/C (dose: 50.0 mg/kg/injection, schedule: Q04DX003 (ip), vehicle: saline with Tween-80): 109 % of control
- T/C [11]: 113 % of control
- T/C [5]: 104 % of control
- T/C [9]: 100 % of control
- T/C [12]: 118 % of control
- T/C [10]: 122 % of control

Structure (SMILES): CC(=O)O.CC(=O)O.[Co+2].[NH-]C(CCC(N)=O)C(=O)O.[NH-]C(CCC(N)=O)C(=O)O (centres undefined)
- T/C (dose: 12.5 mg/kg/injection, schedule: Q01DX009 (ip), vehicle: saline with Tween-80): 87 % of control
- T/C (dose: 25.0 mg/kg/injection, schedule: Q01DX009 (ip), vehicle: saline with Tween-80): 93 % of control
- T/C [4]: 98 % of control

Structure (SMILES): CC(=O)OC1CCC2(C)C(CCC3(C)C2CC=C2C4C(C)C(C)CCC4(C)CCC23C)C1(C)C (centres undefined)
- T/C [3]: 100 % of control
- T/C [7]: 100 % of control
- T/C [8]: 90 % of control

Structure (SMILES): CCNC(C)(C)C(SSS)c1cccs1 (centres undefined)
- T/C [5]: 112 % of control
- T/C [9]: 100 % of control
- T/C [6]: 120 % of control
- T/C [10]: 122 % of control
- T/C (dose: 400.0 mg/kg/injection, schedule: Q04DX003 (ip), vehicle: saline with Tween-80): 118 % of control

Structure (SMILES): CCCCCCCCCOc1ccc(C=O)cc1OC
- T/C (dose: 100.0 mg/kg/injection, schedule: Q01DX001 (ip), vehicle: saline sonified): 100 % of control
- T/C (dose: 200.0 mg/kg/injection, schedule: Q01DX001 (ip), vehicle: saline sonified): 90 % of control
- T/C (dose: 400.0 mg/kg/injection, schedule: Q01DX001 (ip), vehicle: saline sonified): 100 % of control
